Results reported in ChEMBL document CHEMBL1201862, “PubChem BioAssay data set” (2004).
Activity calls are given as the source filed them.

Columns and labels:
[1] = rise of 2N DNA cells, HeLa – IC50, dose response (AID 1117349); assay type: functional, cell-based
[2] = rise of 4N DNA cells, HeLa – IC50, dose response (AID 1117351); assay type: functional, cell-based
Ephrin type-A receptor 4 = Ephrin type-A receptor 4 (Mus musculus, UniProt Q03137); test: EphA4 ligand-binding antagonists – biochemical, colorimetric, mouse EphA4, primary screen (AID 689); assay type: functional
[3] = molecular target: T1, Endoribonuclease toxin MazF (Escherichia coli K-12, UniProt P0AE70); test: activation of MazEF endoribonuclease cleavage – biochemical, fluorescence, single-stranded RNA substrate, uHTS hits, dose response (AID 588481); assay type: functional
T1 sequence (P0AE70 whole entry): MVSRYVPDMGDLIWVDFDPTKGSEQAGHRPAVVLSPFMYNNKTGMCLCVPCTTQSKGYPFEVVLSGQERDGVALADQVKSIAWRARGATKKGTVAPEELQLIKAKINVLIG

[4] = molecular target: T1, Endoribonuclease toxin MazF; test: substrate-only fluorescence increase artefacts – biochemical, single-stranded RNase substrate, counter-screen for MazEF activator project, dose response (AID 588502); assay type: functional
[5] = molecular target: T2, Corticotropin-releasing factor receptor 2/Corticotropin-releasing factor-binding protein (Homo sapiens, UniProt P24387+Q13324); test: activators of CRF receptor 2 with binding protein – uHTS hits, confirmation (AID 602473); assay type: functional; settings: read-out: EC50_Mean
T2 sequence (Q13324 whole entry): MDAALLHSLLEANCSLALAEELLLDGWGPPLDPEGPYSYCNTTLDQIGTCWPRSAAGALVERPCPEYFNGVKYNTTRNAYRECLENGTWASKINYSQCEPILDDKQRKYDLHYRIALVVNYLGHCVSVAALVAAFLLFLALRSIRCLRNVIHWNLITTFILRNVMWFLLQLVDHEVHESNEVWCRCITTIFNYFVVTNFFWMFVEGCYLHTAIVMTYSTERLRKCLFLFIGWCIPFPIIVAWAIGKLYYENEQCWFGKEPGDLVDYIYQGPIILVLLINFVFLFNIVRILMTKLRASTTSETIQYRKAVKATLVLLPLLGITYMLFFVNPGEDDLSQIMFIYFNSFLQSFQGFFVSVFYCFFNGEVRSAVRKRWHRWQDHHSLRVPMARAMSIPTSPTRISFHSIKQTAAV
T2 sequence (P24387 whole entry): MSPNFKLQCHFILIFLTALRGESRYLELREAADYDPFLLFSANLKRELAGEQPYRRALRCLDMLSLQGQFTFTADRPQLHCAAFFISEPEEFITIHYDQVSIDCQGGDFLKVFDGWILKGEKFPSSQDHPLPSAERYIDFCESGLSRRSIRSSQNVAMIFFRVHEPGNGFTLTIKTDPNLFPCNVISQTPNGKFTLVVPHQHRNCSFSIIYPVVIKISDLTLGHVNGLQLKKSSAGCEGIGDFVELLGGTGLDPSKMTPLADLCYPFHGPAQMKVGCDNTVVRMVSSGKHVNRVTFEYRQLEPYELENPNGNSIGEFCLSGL

[6] = Luminescence-based cell-based high throughput dose response assay to identify activators of the DAF-12 from the parasite S. stercoralis (ssDAF-12).; assay type: functional
[7] = molecular target: Oxysterols receptor LXR-beta (Homo sapiens, UniProt P55055); test: LXR agonists, Gal4 luciferase reporter, dose response, counter-screen for ssDAF-12 agonist project, cell-based, luminescence, HEK293, S. stercoralis campaign (AID 720737); assay type: functional; settings: read-out: IC50 (the source's name)
[8] = molecular target: Sphingosine 1-phosphate receptor 2 (Homo sapiens, UniProt O95136); test: Dose Response Cell Based Assay for Antagonists of the S1P2 Receptor. [Related pubchem assays: 856, 736 ]; assay type: functional
[9] = tested on: Streptococcus sp. 'group A'; test: Streptococcus pyogenes SK(-)GAS viability under kanamycin – luminescence, BacTiterGlo, confirmation, counter-screen for streptokinase expression inhibitor project, dose response (AID 1900); assay type: functional, organism-based
Streptokinase A = molecular target: T3, Streptokinase A (Streptococcus pyogenes serotype M1, UniProt P10520); test: viability-normalized secreted streptokinase activity reduction – plasminogen activation absorbance, OD405, dose response (AID 1914); assay type: functional, Streptococcus pyogenes M1 GAS;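 further: secreted streptokinase activity via plasminogen activation per viability signal from cell pellet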
T3 sequence (P10520 whole entry): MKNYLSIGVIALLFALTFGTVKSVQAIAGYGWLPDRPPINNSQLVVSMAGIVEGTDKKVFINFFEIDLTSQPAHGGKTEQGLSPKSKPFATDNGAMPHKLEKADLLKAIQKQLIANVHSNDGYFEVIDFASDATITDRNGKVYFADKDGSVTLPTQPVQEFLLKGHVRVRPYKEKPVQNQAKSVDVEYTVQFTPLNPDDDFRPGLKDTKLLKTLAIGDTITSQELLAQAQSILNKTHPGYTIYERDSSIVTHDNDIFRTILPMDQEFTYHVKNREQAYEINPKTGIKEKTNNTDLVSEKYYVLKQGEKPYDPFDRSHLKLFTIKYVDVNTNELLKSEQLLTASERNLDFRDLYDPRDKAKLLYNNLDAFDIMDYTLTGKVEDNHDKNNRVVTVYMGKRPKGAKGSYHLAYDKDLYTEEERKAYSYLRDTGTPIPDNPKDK

[10] = HPDE-C7 pancreatic duct cell viability loss – fluorescence, HTS (AID 430); assay type: functional, cell-based; settings: Homo sapiens
[11] = Trypanosoma cruzi growth suppression in host cells – NIH3T3 host cells, beta-gal luminescence, confirmation (AID 2044); assay type: functional, cell-based;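 further: intracellular parasites grown in NIH/3T3 mouse fibroblasts as host cells; luminescent beta-galactosidase reporter signal from transgenic T. cruzi replicating inside host cells; inhibitors lower the luminescence signal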
[12] = viability loss of HPDE-C7K cells – cell-based, fluorescence, HTS, primary screen (AID 431); assay type: functional; settings: Homo sapiens
[13] = NIH3T3 cell viability loss – ATP luminescence, mouse fibroblasts, counter-screen, dose response (AID 2010); assay type: functional, cell-based;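 further: cells exposed to compound for about 90 hours before reading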
Streptococcus = test: GAS UMAA2166 growth inhibition – luminescence, BacTiterGlo, counter-screen for streptokinase expression inhibitor project, dose response (AID 1915); assay type: functional, organism-based;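 further: potency for reduction of bacterial viability or growth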
[14] = growth inhibition of yeast DHODH-expressing 3D7 parasites – SYBR Green, dry powder samples, dose response (AID 1159570); assay type: functional, cell-based;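 further: parasite growth measured after 72 hours of compound exposure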
[15] = toxicity to human HepG2 hepatoma cells – cell-based, plate reader, dry powder samples, cytotoxicity control, dose response (AID 1159569); assay type: functional;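 further: inhibitor potency with signal falling toward the positive control level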
[16] = P. falciparum Dd2 growth inhibitors, dose response, SYBR Green, cherry-picked samples (AID 1159567); assay type: functional, cell-based
[17] = Dd2 malaria parasite growth inhibition potency – SYBR Green, dry powder samples, dose response (AID 1159566); assay type: functional, cell-based;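 further: potency for growth inhibition with lower SYBR green DNA signal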
[18] = growth inhibition of PfATP4-mutant resistant parasites – NITD609-resistant line, SYBR Green, dry powder, dose response (AID 1159571); assay type: functional, cell-based;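 further: parasites synchronized at ring stage by sorbitol before testing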
[19] = toxicity to human hepatoma HepG2 cells – cell-based, cherry-picked samples, cytotoxicity control, dose response (AID 1159577); assay type: functional
[20] = inhibitors acting on PAX2 in cells – cell-based, plate reader, dry powder samples, selectivity assay for PAX8 inhibitor project, dose response (AID 743048); assay type: functional;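 further: HEK293 cells carrying a WT1 promoter luciferase reporter driven by expressed Pax2; potency is for inhibition of Pax2 driven reporter signal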
[21] = OVCAR-3 cell viability loss – plate reader, dry powder samples, PAX8 inhibitor project, dose response (AID 743044); assay type: functional, cell-based
[22] = PAX5 cellular inhibition readout – cell-based, plate reader, dry powder samples, selectivity assay for PAX8 inhibitor project, dose response (AID 743047); assay type: functional;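 further: HEK293 cells carrying a Pax5 driven CD19 promoter luciferase reporter; potency of inhibitors that lower reporter luminescence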
[23] = OV-90 cell viability loss – plate reader, dry powder, SA8, PAX8 inhibitor project, dose response (AID 743149); assay type: functional, cell-based
[24] = PAX8-dependent cell viability loss – plate reader, dry powder, dose response (AID 743049); assay type: functional, cell-based
[25] = molecular target: Luciferin 4-monooxygenase (Photinus pyralis, UniProt P08659); test: inhibition of purified Photinus pyralis luciferase – biochemical, luminescence, dose response (AID 1891)
[26] = Luminescence Cell-Based Dose Confirmation HTS to Identify Inhibitors of Platelet Dense Granule Release. [Related pubchem assays: 1663 (Primary HTS), 1678 (Summary of Project)]; assay type: functional
[27] = molecular target: Dual specificity tyrosine-phosphorylation-regulated kinase 1A (Rattus norvegicus, UniProt Q63470); assay type: biochemical, Homo sapiens
[28] = M. tuberculosis H37Rv growth inhibitors, H37Rv strain (AID 1626); assay type: functional

Chain of Oxysterols receptor LXR-beta (P55055 whole entry, the tested form may be a part): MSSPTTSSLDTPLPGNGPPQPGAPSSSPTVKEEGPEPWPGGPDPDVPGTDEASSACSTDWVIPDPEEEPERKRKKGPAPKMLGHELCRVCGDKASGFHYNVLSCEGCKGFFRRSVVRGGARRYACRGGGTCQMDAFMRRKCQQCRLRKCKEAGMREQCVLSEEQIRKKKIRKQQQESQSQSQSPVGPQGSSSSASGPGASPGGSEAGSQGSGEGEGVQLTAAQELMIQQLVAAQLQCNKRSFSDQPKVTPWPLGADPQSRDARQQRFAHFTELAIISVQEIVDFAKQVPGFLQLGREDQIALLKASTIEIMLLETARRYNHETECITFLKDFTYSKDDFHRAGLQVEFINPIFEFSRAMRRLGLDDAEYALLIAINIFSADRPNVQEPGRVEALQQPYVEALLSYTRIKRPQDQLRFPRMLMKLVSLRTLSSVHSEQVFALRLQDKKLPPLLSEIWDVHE
Chain of Ephrin type-A receptor 4 (Q03137 whole entry): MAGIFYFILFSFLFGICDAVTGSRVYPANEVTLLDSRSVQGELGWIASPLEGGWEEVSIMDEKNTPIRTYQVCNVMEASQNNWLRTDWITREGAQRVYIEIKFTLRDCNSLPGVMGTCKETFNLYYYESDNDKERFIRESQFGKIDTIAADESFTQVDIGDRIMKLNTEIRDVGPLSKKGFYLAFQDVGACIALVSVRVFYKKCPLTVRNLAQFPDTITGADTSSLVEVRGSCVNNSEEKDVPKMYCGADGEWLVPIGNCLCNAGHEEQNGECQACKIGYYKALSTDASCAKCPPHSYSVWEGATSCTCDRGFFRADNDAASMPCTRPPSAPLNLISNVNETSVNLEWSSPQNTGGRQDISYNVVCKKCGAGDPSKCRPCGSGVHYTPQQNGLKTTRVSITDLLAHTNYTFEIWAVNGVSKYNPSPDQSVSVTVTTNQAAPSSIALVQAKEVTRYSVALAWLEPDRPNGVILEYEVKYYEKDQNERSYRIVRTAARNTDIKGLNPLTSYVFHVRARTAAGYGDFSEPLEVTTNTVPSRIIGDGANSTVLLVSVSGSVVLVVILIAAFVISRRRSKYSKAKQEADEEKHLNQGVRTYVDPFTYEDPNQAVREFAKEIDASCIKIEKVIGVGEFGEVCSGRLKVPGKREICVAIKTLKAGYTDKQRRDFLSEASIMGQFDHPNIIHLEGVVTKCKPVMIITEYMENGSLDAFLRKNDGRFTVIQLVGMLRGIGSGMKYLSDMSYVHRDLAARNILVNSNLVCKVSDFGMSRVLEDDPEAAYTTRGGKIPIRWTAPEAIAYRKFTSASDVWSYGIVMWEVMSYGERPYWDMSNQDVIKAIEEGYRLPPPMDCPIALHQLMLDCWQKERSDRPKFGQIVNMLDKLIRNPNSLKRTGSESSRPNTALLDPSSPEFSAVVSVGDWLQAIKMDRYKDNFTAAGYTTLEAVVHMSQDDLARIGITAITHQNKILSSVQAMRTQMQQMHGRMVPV
Chain of Sphingosine 1-phosphate receptor 2 (O95136 whole entry): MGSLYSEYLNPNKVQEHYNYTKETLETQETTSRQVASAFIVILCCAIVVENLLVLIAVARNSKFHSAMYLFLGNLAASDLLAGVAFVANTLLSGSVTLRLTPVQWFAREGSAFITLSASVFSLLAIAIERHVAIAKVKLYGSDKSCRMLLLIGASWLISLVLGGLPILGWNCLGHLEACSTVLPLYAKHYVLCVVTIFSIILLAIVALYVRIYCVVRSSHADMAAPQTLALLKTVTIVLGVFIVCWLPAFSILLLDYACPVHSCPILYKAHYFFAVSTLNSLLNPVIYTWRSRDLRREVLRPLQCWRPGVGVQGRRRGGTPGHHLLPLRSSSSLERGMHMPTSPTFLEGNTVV
Chain of Luciferin 4-monooxygenase (P08659 whole entry): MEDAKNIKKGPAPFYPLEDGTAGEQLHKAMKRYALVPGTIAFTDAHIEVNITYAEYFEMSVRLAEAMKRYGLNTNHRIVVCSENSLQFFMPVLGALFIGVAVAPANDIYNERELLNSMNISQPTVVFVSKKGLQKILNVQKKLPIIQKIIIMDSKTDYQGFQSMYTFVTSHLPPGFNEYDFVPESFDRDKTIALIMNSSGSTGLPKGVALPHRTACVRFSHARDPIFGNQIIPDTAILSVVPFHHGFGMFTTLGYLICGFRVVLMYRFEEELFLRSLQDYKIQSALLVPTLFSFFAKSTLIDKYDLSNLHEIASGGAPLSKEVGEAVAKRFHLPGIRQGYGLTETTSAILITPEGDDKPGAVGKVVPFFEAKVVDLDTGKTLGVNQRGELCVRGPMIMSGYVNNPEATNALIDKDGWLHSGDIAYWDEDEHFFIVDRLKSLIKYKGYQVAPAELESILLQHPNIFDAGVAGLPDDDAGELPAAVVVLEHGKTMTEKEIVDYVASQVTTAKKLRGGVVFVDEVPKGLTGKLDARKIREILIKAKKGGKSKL

For `COC(=O)[C@H]1[C@H]2C[C@@H]3c4[nH]c5cc(OC)ccc5c4CCN3C[C@H]2C[C@@H](OC(=O)/C=C/c2ccc(O)c(OC)c2)[C@@H]1OC` [RESCIMETOL], the IC50 [1] was > 10 µM (inactive) and the IC50 [2] was > 10 µM (inactive).

With `CCCn1nc(-c2ccccc2)c2nc3ccccc3nc21` the IC50 (Ephrin type-A receptor 4) was 10.3 µM (active), the EC50 [3] was > 99 µM (inactive) and the EC50 [4] was 61.7 µM (inactive). For the same compound, the EC50 [5] was 5.23 µM (active).

For `N#C/C(=C\c1ccc[nH]1)C(=O)Nc1ccccc1F`, the IC50 [6] was > 67.5 µM (inactive) and the EC50 [7] was > 67.5 µM (inactive).

In the case of `N#C/C(=C/c1ccc(N2CCCCCC2)o1)c1ccc(F)cc1`, the IC50 [8] is reported as 11.5 µM (not active), the EC50 [9] is reported as 19.2 µM (active) and the EC50 (Streptokinase A) is reported as 16 µM (active). For the same compound, the EC50 [10] was 13.6 µM (active), the EC50 [11] was 3.49 µM (active) and the EC50 [12] was 14.1 µM (active). For the same compound, the EC50 [13] was 9.44 µM (active) and the EC50 (Streptococcus) was > 150 µM (not active).

For `COCCOC(=O)C1=C(C)NC(C)=C(C(=O)OC/C=C/c2ccccc2)C1c1cccc([N+](=O)[O-])c1` (centres undefined) [CILNIDIPINE], the IC50 [1] was > 10 µM (inactive) and the IC50 [2] was > 10 µM (inactive).

For `COCC#Cc1ccc([C@@H]2[C@H](CO)N3CCCCN(S(=O)(=O)c4ccc(OC)cc4)C[C@@H]23)cc1`, the AC50 [14] was 1.81 µM (active), the AC50 [15] was 98.4 µM (active) and the AC50 [16] was 2.47 µM (active). For the same compound, the AC50 [17] was 1.33 µM (active) and the AC50 [18] was 1.48 µM (active).

In the case of `Cc1ccc(-c2ccc3c(c2)O[C@H](CN(C)Cc2ccncc2)[C@@H](C)CN([C@H](C)CO)S3(=O)=O)cc1`, the AC50 [16] is reported as 5.12 µM (active) and the AC50 [19] is reported as 22.1 µM (active).

For `COC(=O)[C@@]1(CCS(=O)(=O)c2ccccc2)N=C(c2ccc(OCCCO)cc2)O[C@H]1c1ccccc1`, the AC50 [20] was 58.6 µM (active), the AC50 [21] was 95 µM (active) and the AC50 [22] was 77.3 µM (active). For the same compound, the AC50 [23] was 14.1 µM (active) and the AC50 [24] was > 100 µM (inactive).

With `N/C(=N\N=C\c1cccc(O)c1)c1nonc1N` the EC50 [25] was 3.47 µM (active), the EC50 [26] was 1.75 µM (active) and the IC50 [6] was > 67.5 µM (inactive). For the same compound, the EC50 [7] was > 67.5 µM (inactive).

With `CN1CCc2nc3sc(C#N)c(N)c3c(-c3cccs3)c2C1` the EC50 [11] was < 0.1 µM (active), the EC50 [13] was > 60 µM (not active) and the AC50 [27] was 3.27 µM (active). The EC50 (cells) was 0.06 µM (active).

In the case of `O=C(CCSc1ccc(Cl)cc1)c1cccs1`, the IC50 [28] is reported as > 100 µM (active).
